Results from patent US20260226077A1, “TYPE II TOPOISOMERASE INHIBITORS AND METHODS OF MAKING AND USING THEREOF” (Ohio State Innovation Foundation, priority 2023, published 2026).
Converted amounts (≈) assume the structure as drawn. Marks after values point to notes of the source that are not given here.

What was measured:
FQ-R MRSA = assay: MIC against FQ-R MRSA isolates; format: cell-based, Staphylococcus aureus; conditions: n = 15 (147), n = 25 (284, 319, gepotidacin); for MIC90: Staphylococcus aureus, MRSA
D83N = assay: MIC against D83N mutant; format: cell-based
TopoIV/gyrase = TopoIV/gyrase inhibition ratio; format: biochemical
hERG = hERG (Homo sapiens, UniProt Q12809); assay: hERG inhibition; format: cell-based
K562 = K562 cytotoxicity; format: cell-based; conditions: Homo sapiens
[1] = Mouse microsomal stability; format: in vitro ADME; conditions: microsomes, read-out: Mouse microsom. t1/2
[2] = Human microsomal stability; format: in vitro ADME; conditions: microsomes, read-out: Human microsom. t1/2
S. aureus ATCC 29213 = format: cell-based; conditions: Using S. aureus ATCC 29213
Staphylococcus aureus = assay: MIC50/90 against Staphylococcus aureus isolates; format: cell-based; conditions: n = 30 (147), n = 100 (284, 319, gepotidacin)
Enterococcus spp. = assay: MIC50/90 against Enterococcus spp.; format: cell-based; conditions: n = 10 (147), n = 20 (others)
Streptococcus pneumoniae = assay: MIC50/90 against Streptococcus pneumoniae; format: cell-based; conditions: for MIC50: n = 5 (147), n = 10 (others); for MIC90: n = 10
Streptococcus pyogenes = assay: MIC50/90 against Streptococcus pyogenes; format: cell-based; conditions: for MIC50: n = 5 (147), n = 10 (others); for MIC90: n = 10
Streptococcus agalactiae = assay: MIC50/90 against Streptococcus agalactiae; format: cell-based; conditions: Streptococcus agalactiae; for MIC50: n = 5 (147), n = 10 (others); for MIC90: n = 10
Bacillus anthracis = assay: microbe, parasite or virus in culture; format: cell-based; conditions: for MIC50: read-out: Bacillus anthracis MIC50 (μg/mL); for MIC90: read-out: Bacillus anthracis MIC90 (μg/mL)
Neisseria gonorrhoeae = assay: MIC50/90 against Neisseria gonorrhoeae; format: cell-based; conditions: Neisseria gonorrhoeae; n = 17 (284, gepotidacin); n = 110 (147)
Escherichia coli 25922 = assay: MIC against Escherichia coli 25922; format: cell-based; conditions: Escherichia coli, 25922
[3] = test system: Acinetobacter baumannii 19606; assay: MIC against Acinetobacter baumannii 19606; format: cell-based
[4] = test system: Pseudomonas aeruginosa 27853; assay: MIC against Pseudomonas aeruginosa 27853; format: cell-based
[5] = test system: CYP 1A, 2B6, 2C8, 2C9, 2C19, 2D6, 3A; assay: CYP inhibition at 10 μM; format: in vitro ADME
CACO-2 = assay: Permeability: CACO-2 A->B; format: in vitro ADME
5-HT2b = 5-HT2b (Homo sapiens, UniProt P41595); assay: Safety44 screen at 100 μM: 5-HT2b
[6] = not given; remark: listed apart in the source
in vivo = conditions: mouse
physchem = conditions: pH 7.4, aqueous buffer, kinetic from dmso stock, Kinetic solubility at pH 7.4-7.5 (μM)
Mouse pharmacokinetics = conditions: 284: as free base in immunocompetent mice, 147: no footnote
M121K = assay: MIC against M121K mutant; format: cell-based
Rat microsomal stability = format: in vitro ADME; conditions: microsomes, read-out: Rat microsom. t1/2
Dog microsomal stability = format: in vitro ADME; conditions: microsomes, read-out: Dog microsom. t1/2
[7] = Monkey microsomal stability; format: in vitro ADME; conditions: microsomes, read-out: Monkey microsom. t1/2
Escherichia coli = assay: MIC50 against Escherichia coli isolates; format: cell-based; conditions: n = 8
Pseudomonas aeruginosa = assay: MIC50 against Pseudomonas aeruginosa isolates; format: cell-based; conditions: n = 8
[8] = Permeability: CACO-2 A->B; format: in vitro ADME; conditions: human, Caco-2
[9] = Permeability: MDCK II A->B; format: in vitro ADME; conditions: dog
S. aureus 29213 = assay: MIC against S. aureus 29213; format: cell-based; conditions: Staphylococcus aureus
S. aureus USA300 = assay: MIC against S. aureus USA300; format: cell-based; conditions: Staphylococcus aureus
S. aureus CF isolate = assay: MIC against S. aureus CF isolate; format: cell-based; conditions: Staphylococcus aureus
[10] = all channels
in vitro [11] = conditions: mouse, plasma
in vitro [12] = conditions: human, plasma
in vitro [13] = conditions: rat, plasma
[14] = test system: Staphylococcus epidermidis; assay: MIC50/90 against Staphylococcus epidermidis; format: cell-based; conditions: n = 10
Moraxella catarrhalis = assay: MIC50/90 against Moraxella catarrhalis; format: cell-based; conditions: n = 10
Haemophilus influenzae = assay: MIC50/90 against Haemophilus influenzae; format: cell-based; conditions: n = 10
Mycobacterium abscessus = assay: MIC50/90 against Mycobacterium abscessus; format: cell-based; conditions: Mycobacteroides abscessus; n = 10
Mycobacterium avium = assay: MIC50 against Mycobacterium avium; format: cell-based; conditions: n = 4
[15] = test system: Mycobacterium chimaera intracellulare group; assay: MIC50 against Mycobacterium chimaera intracellulare group; format: cell-based; conditions: n = 6
Francisella tularensis = assay: microbe, parasite or virus in culture; format: cell-based
Yersinia pestis = assay: microbe, parasite or virus in culture; format: cell-based
Burkholderia mallei = assay: microbe, parasite or virus in culture; format: cell-based; conditions: Burkholderia mallei
[16] = test system: Burkholderia pseudomallei; assay: microbe, parasite or virus in culture; format: cell-based
[17] = in vivo; cited from earlier work

Chain of hERG (Q12809 whole entry): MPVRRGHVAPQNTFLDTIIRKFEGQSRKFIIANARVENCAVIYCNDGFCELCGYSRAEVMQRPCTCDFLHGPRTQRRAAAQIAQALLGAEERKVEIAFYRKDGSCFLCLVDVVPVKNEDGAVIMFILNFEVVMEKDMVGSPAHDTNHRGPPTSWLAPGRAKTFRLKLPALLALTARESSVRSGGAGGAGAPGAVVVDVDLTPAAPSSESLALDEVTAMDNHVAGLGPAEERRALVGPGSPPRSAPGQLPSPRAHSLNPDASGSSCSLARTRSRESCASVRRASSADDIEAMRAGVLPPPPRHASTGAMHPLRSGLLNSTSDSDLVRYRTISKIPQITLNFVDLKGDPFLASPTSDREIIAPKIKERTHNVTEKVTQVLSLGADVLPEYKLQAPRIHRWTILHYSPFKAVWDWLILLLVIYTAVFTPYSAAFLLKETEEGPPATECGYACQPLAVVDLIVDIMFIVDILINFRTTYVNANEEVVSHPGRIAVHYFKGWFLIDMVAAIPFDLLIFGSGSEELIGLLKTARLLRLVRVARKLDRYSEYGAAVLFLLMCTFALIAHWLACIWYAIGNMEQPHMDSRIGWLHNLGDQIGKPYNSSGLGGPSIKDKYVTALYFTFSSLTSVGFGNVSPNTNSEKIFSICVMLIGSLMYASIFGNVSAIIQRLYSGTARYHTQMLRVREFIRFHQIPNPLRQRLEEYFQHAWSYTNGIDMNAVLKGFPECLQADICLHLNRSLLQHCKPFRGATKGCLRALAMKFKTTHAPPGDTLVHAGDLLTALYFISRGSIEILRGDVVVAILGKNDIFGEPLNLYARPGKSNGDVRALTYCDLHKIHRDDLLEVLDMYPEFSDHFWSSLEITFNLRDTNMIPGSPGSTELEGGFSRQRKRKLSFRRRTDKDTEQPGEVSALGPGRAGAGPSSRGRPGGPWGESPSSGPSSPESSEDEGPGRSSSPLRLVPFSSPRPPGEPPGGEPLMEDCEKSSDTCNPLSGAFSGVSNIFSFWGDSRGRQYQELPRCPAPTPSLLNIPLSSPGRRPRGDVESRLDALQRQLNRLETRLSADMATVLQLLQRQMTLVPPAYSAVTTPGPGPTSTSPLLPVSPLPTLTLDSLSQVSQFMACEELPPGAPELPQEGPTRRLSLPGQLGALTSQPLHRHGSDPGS
Chain of 5-HT2b (P41595 whole entry): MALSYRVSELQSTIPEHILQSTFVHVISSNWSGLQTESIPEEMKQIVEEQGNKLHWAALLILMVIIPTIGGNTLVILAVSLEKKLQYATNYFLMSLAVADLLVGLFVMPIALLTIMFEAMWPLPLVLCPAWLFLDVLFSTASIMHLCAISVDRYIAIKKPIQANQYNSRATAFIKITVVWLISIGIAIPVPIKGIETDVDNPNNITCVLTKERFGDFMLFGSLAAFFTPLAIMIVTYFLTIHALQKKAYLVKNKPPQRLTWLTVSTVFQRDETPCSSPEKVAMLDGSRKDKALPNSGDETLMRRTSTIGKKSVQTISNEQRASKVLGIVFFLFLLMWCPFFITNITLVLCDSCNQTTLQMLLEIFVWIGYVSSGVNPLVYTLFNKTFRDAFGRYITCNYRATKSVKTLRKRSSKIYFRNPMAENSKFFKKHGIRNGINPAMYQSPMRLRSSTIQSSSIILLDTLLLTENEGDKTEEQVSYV

## COc1ccc2ncc(F)c(C[C@H](O)[C@H]3OC[C@H](NCc4cc5c(nn4)OCCS5)CO3)c2n1 [Compound 147, reference compound]
FQ-R MRSA
  MIC90: 0.25 µg/mL (≈ 0.511 µM)
D83N
  MIC: 4 to 8 µg/mL (≈ 8.17 to 16.3 µM)
TopoIV/gyrase
  TopoIV/gyrase ratio: 16
hERG
  IC50: 103 µM
K562
  IC50: 153 µM
[1]
  half-life: 0.3 to 0.433 h
[2]
  half-life: 1.57 h
S. aureus ATCC 29213
  Resistance freq. (at 8X MIC): 2.02 × 10^−9*
Staphylococcus aureus
  MIC50: 0.12 µg/mL (≈ 0.245 µM)
  MIC90: 0.25 µg/mL (≈ 0.511 µM)
Enterococcus spp.
  MIC50: 0.25 µg/mL (≈ 0.511 µM)
  MIC90: 1 µg/mL (≈ 2.04 µM)
Streptococcus pneumoniae
  MIC50: 0.5 µg/mL (≈ 1.02 µM)
Streptococcus pyogenes
  MIC50: 0.5 µg/mL (≈ 1.02 µM)
Streptococcus agalactiae
  MIC50: 4 µg/mL (≈ 8.17 µM)
Bacillus anthracis
  MIC50: 2 µg/mL (≈ 4.09 µM)
  MIC90: 8 µg/mL (≈ 16.3 µM)
Neisseria gonorrhoeae
  MIC50: > 4 µg/mL
  MIC90: > 4 µg/mL
Escherichia coli 25922
  MIC: > 64 µg/mL
[3]
  MIC: 64 µg/mL (≈ 131 µM)
[4]
  MIC: > 64 µg/mL
[5]
  CYP inhibition at 10 μM (1A, 2B6, 2C8, 2C9, 2C19, 2D6, 3A): No issues
CACO-2
  Permeability: CACO-2 A−>B (×10^−6 cm/s): 5.68 ×10^−6 cm/s
5-HT2b
  Safety44 screen at 100 μM: 5-HT2b: 5-HT2b (72%)
other
  Mouse plasma protein binding (% unbound): 12 % unbound
[6]
  Human plasma protein binding (% unbound): 15 % unbound
In vivo; Mouse Vdss (L)
  Vd: 1 L
In vivo; po, Mouse PK Oral bioavailability (%)
  bioavailability: 49%
physchem
  solubility kinetic: 69.6 µM (≈ 34.1 µg/mL)
Mouse pharmacokinetics; 50 mg/kg oral
  Mouse PK AUClast, unbound (μg*h/mL) after 50 mg/kg oral dose: 0.9 µg·h/mL
Mouse pharmacokinetics
  Mouse Clunbound: 575 mL/min/kg

## O=C1COc2ncc(CN[C@H]3CO[C@H](CC4Cn5c(=O)ccc6ccc(F)c4c65)OC3)nc2N1 (stereo partly drawn) [Compound 319, 6-(((2-((9-fluoro-4-oxo-1,2-dihydro-4H-pyrrolo[3,2,1-ij]quinolin-1-yl)methyl)-trans-1,3-dioxan-5-yl)amino)methyl)-2H-pyrazino[2,3-b][1,4]oxazin-3(4H)-one]
FQ-R MRSA
  MIC90: 0.5 µg/mL (≈ 1.07 µM)
  FQ-R MRSA MIC90 (μg/mL): 0.5/0.5 μg/mL
D83N
  MIC: 4 µg/mL (≈ 8.56 µM)
M121K
  MIC: 4 µg/mL (≈ 8.56 µM)
TopoIV/gyrase
  TopoIV/gyrase ratio: 0.65
K562
  IC50: 135 µM
[1]
  half-life: 5.78 h
[2]
  half-life: > 2 h
Rat microsomal stability
  half-life: > 2 h
Dog microsomal stability
  half-life: > 2 h
[7]
  half-life: > 2 h
Staphylococcus aureus
  MIC50: 0.5 µg/mL (≈ 1.07 µM)
  MIC90: 1 µg/mL (≈ 2.14 µM)
Enterococcus spp.
  MIC50: 4 µg/mL (≈ 8.56 µM)
  MIC90: 8 µg/mL (≈ 17.1 µM)
Streptococcus pneumoniae
  MIC50: 1 µg/mL (≈ 2.14 µM)
  MIC90: 2 µg/mL (≈ 4.28 µM)
Streptococcus pyogenes
  MIC50: 2 µg/mL (≈ 4.28 µM)
  MIC90: 8 µg/mL (≈ 17.1 µM)
Streptococcus agalactiae
  MIC50: 16 µg/mL (≈ 34.2 µM)
  MIC90: 32 µg/mL (≈ 68.5 µM)
Escherichia coli
  MIC50: 16 µg/mL (≈ 34.2 µM)
Pseudomonas aeruginosa
  MIC50: 16 µg/mL (≈ 34.2 µM)
Escherichia coli 25922
  MIC: 16 µg/mL (≈ 34.2 µM)
[3]
  MIC: 16 µg/mL (≈ 34.2 µM)
[4]
  MIC: 64 µg/mL (≈ 137 µM)
[8]
  Papp A→B: 0.8 ×10⁻⁶ cm/s
[9]
  Papp A→B: 1.96 ×10⁻⁶ cm/s
S. aureus 29213
  MIC: 0.5 µg/mL (≈ 1.07 µM)
S. aureus USA300
  MIC: 0.5 µg/mL (≈ 1.07 µM)
S. aureus CF isolate
  MIC: 0.25 µg/mL (≈ 0.535 µM)
other
  Mouse plasma protein binding (% unbound): 27 % unbound
[6]
  Human plasma protein binding (% unbound): 23 % unbound
[10]
  Comprehensive in vitro proarrhythmia assay at 100 μM, inhibition: All <25%
In vitro [11]
  half-life: > 4 h
In vitro [12]
  half-life: 2.18 h
In vitro [13]
  half-life: > 4 h
physchem
  solubility kinetic: 25 µM (≈ 11.7 µg/mL)

## O=c1ccc2ncc(=O)n3c2n1C[C@H]3CN1CCC(NCc2cc3c(cn2)OCCC3)CC1 [gepotidacin, reference compound]
FQ-R MRSA
  MIC90: 0.5 µg/mL (≈ 1.11 µM)
Staphylococcus aureus
  MIC50: 0.25 µg/mL (≈ 0.557 µM)
  MIC90: 0.5 µg/mL (≈ 1.11 µM)
[14]
  MIC50: 0.25 µg/mL (≈ 0.557 µM)
  MIC90: 0.5 µg/mL (≈ 1.11 µM)
Enterococcus spp.
  MIC50: 2 µg/mL (≈ 4.46 µM)
  MIC90: 4 µg/mL (≈ 8.92 µM)
Streptococcus pneumoniae
  MIC50: 0.12 µg/mL (≈ 0.268 µM)
  MIC90: 0.25 µg/mL (≈ 0.557 µM)
Streptococcus pyogenes
  MIC50: 0.12 µg/mL (≈ 0.268 µM)
  MIC90: 0.5 µg/mL (≈ 1.11 µM)
Streptococcus agalactiae
  MIC50: 0.5 µg/mL (≈ 1.11 µM)
  MIC90: 1 µg/mL (≈ 2.23 µM)
Moraxella catarrhalis
  MIC50: 0.06 µg/mL (≈ 0.134 µM)
  MIC90: 0.06 µg/mL (≈ 0.134 µM)
Haemophilus influenzae
  MIC50: 1 µg/mL (≈ 2.23 µM)
  MIC90: 2 µg/mL (≈ 4.46 µM)
Mycobacterium abscessus
  MIC50: 16 µg/mL (≈ 35.7 µM)
  MIC90: 64 µg/mL (≈ 143 µM)
Mycobacterium avium
  MIC50: 32 µg/mL (≈ 71.3 µM)
[15]
  MIC50: > 64 µg/mL
Bacillus anthracis
  MIC50: 0.5 µg/mL (≈ 1.11 µM)
  MIC90: 0.5 µg/mL (≈ 1.11 µM)
Francisella tularensis; read-out: Francisella tularensis MIC50 (μg/mL)
  MIC50: 0.12 µg/mL (≈ 0.268 µM)
Francisella tularensis; read-out: Francisella tularensis MIC90 (μg/mL)
  MIC90: 0.5 µg/mL (≈ 1.11 µM)
Yersinia pestis; read-out: Yersinia pestis MIC50 (μg/mL)
  MIC50: 0.12 µg/mL (≈ 0.268 µM)
Yersinia pestis; read-out: Yersinia pestis MIC90 (μg/mL)
  MIC90: 0.5 µg/mL (≈ 1.11 µM)
Burkholderia mallei; read-out: Burkholderia mallei MIC50 (μg/mL)
  MIC50: 8 µg/mL (≈ 17.8 µM)
Burkholderia mallei; read-out: Burkholderia mallei MIC90 (μg/mL)
  MIC90: ≥ 64 µg/mL
[16]; read-out: Burkholderia pseudomallei MIC50 (μg/mL)
  MIC50: 32 µg/mL (≈ 71.3 µM)
[16]; read-out: Burkholderia pseudomallei MIC90 (μg/mL)
  MIC90: 32 µg/mL (≈ 71.3 µM)
Neisseria gonorrhoeae
  MIC50: 0.5 µg/mL (≈ 1.11 µM)
  MIC90: 1 µg/mL (≈ 2.23 µM)
Escherichia coli 25922
  MIC: 1 to 2 µg/mL (≈ 2.23 to 4.46 µM)
[3]
  MIC: 32 µg/mL (≈ 71.3 µM)
[4]
  MIC: 8 to 16 µg/mL (≈ 17.8 to 35.7 µM)

## NXL-101
[17]
  QT-prolongation in clinical studies: withdrawn from clinical studies as a result of QT-prolongation
